We go through 11 molecules from ChEMBL document CHEMBL1201862, “PubChem BioAssay data set” (2004).

Structures are written as SMILES.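 48-hour exposure; five concentrations; linearly interpolated endpoints. Here, GI50 denotes the concentration required for 50% inhibition of growth.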 Active and inactive are the calls of the source. No stated cut-off is given here; in the data, active = GI50 up to about 1.1 µM and inactive = higher. Where a SMILES comes first, the peptide text is derived from it.

Some test systems named below: CAKI-1; CCRF-CEM; DU-145; HOP-92; HT-29; Hs-578T; IGROV-1; MDA-MB-435; MOLT-4; NCI-H226; NCI-H460; NCI/ADR-RES; OVCAR-5; SK-MEL-2; SNB-75; SW-620; TK-10; UACC-257; UO-31; RXF 393.
Common to all, as to assay: NCI-60 cell line screen, 48 h

In the case of `CC(=O)C1(O)Cc2c(O)c3c(c(O)c2C(OC2CC(N)C(O)C(C)O2)C1)C(=O)c1ccccc1C3=O` (stereo unspecified), the GI50 in the assay on CAKI-1 is 0.00836 µM (active); in the assay with CCRF-CEM it was 0.01 µM (active); with DU-145, 0.0221 µM (active); with HOP-92, 0.187 µM (active); with HT-29, 0.0252 µM (active); in the assay with Hs-578T, 0.254 µM (active). The GI50 with IGROV-1 is 0.0243 µM (active); in the assay with MDA-MB-435, 0.12 µM (active); in the assay with MOLT-4 it was 0.01 µM (active); in the assay on NCI-H226, 0.0163 µM (active); in the assay on NCI-H460, 0.000569 µM (active); with NCI/ADR-RES, 0.297 µM (active). Moreover, the GI50 was 0.141 µM (active) in the assay on OVCAR-5; 0.415 µM (active) in the assay with SK-MEL-2; 0.0132 µM (active) in the assay with SNB-75; 0.0221 µM (active) with SW-620; 0.053 µM (active) in the assay on TK-10; 0.121 µM (active) with UACC-257. Besides, in the assay on UO-31, the GI50 was 0.042 µM (active).
As for `CC(C)OP(=O)(c1ccccc1)c1ccc2c(c1)OCCOCCOCCOCCO2` (stereo unspecified), the GI50 in the assay on CCRF-CEM, in the assay with DU-145, in the assay with HT-29, with Hs-578T, in the assay on IGROV-1 and with MDA-MB-435 was > 100 µM (inactive) each time. Besides, the GI50 with MOLT-4, in the assay with NCI-H226, in the assay on NCI-H460, in the assay with SNB-75, in the assay on SW-620 and in the assay on TK-10 was > 100 µM (inactive) throughout. Moreover, the GI50 in the assay on UACC-257 and in the assay on UO-31 was > 100 µM (inactive) in each case.
As to `C=C1c2nc3ccccc3n2C=C(c2ccc(OC)cc2)N1c1ccc(OC)cc1`, the GI50 was 4.62 µM (inactive) in the assay with CAKI-1; > 100 µM (inactive) with CCRF-CEM; 26.9 µM (inactive) with DU-145; 15.6 µM (inactive) in the assay with HOP-92; 10.6 µM (inactive) with IGROV-1; 12.1 µM (inactive) with MDA-MB-435. The GI50 in the assay with MOLT-4 was > 100 µM (inactive); in the assay on NCI-H226, 18.7 µM (inactive); in the assay with NCI-H460 it was 13.8 µM (inactive); with NCI/ADR-RES, 5.26 µM (inactive); in the assay with OVCAR-5, 65.5 µM (inactive); in the assay with RXF 393, 9.98 µM (inactive). The GI50 is 29.3 µM (inactive) in the assay on SK-MEL-2; 5.61 µM (inactive) with SNB-75; 37.8 µM (inactive) with SW-620; 10.8 µM (inactive) in the assay on TK-10; 34 µM (inactive) in the assay on UACC-257; 12.5 µM (inactive) with UO-31.
For `O=C1/C(=C/c2ccc(Cl)cc2)NC(=S)N1CN1CCOCC1`, the GI50 in the assay on CCRF-CEM is 74 µM (inactive); in the assay on DU-145 it was > 100 µM (inactive); with HOP-92, > 100 µM (inactive); in the assay on HT-29, > 100 µM (inactive); with Hs-578T, > 100 µM (inactive); in the assay on IGROV-1, > 100 µM (inactive). Besides, the GI50 in the assay on MDA-MB-435, in the assay on MOLT-4, with NCI-H226, in the assay on NCI/ADR-RES, in the assay on OVCAR-5 and in the assay on SK-MEL-2 was > 100 µM (inactive) each time. For the same molecule, the GI50 in the assay with SNB-75, in the assay on SW-620, in the assay with TK-10, in the assay with UACC-257 and in the assay on UO-31 was > 100 µM (inactive) each time.
Turning to `CC1(C)C(C#N)C1C1=C(N2CCOCC2)[C@]2(C)C(OC(=O)c3ccccc3)CC[C@@H]2C1` (stereo partly specified), the GI50 with CAKI-1 was > 100 µM (inactive); with CCRF-CEM, 31 µM (inactive); with HOP-92, 61.2 µM (inactive); in the assay on HT-29, 50.1 µM (inactive); in the assay on Hs-578T, > 100 µM (inactive); with IGROV-1, > 100 µM (inactive). The GI50 in the assay on MDA-MB-435 is > 100 µM (inactive); in the assay on MOLT-4 it was 34.9 µM (inactive); in the assay on NCI-H226 it was > 100 µM (inactive); in the assay with NCI-H460, > 100 µM (inactive); in the assay on NCI/ADR-RES, > 100 µM (inactive); in the assay with OVCAR-5 it was > 100 µM (inactive). In addition, the GI50 with RXF 393 is 35.6 µM (inactive); in the assay with SNB-75 it was 20.5 µM (inactive); in the assay on SW-620, > 100 µM (inactive); with TK-10 it was > 100 µM (inactive); in the assay on UACC-257, > 100 µM (inactive); in the assay on UO-31, > 100 µM (inactive).
As for `O=C(OCC(Cl)(Cl)Cl)O[C@@H]1CCCC1(c1ccccc1)c1ccccc1`, the GI50 in the assay on CAKI-1 was > 100 µM (inactive); in the assay with CCRF-CEM, > 100 µM (inactive); in the assay with DU-145, > 100 µM (inactive); with HT-29 it was > 100 µM (inactive); in the assay with IGROV-1, > 100 µM (inactive); with MDA-MB-435, 24.2 µM (inactive). The GI50 with MOLT-4 was 6.81 µM (inactive); in the assay on NCI-H226 it was 37.5 µM (inactive); in the assay on NCI-H460 it was 71 µM (inactive); in the assay with NCI/ADR-RES it was > 100 µM (inactive); with OVCAR-5, > 100 µM (inactive); in the assay with RXF 393, 63.2 µM (inactive). The GI50 in the assay with SNB-75 is > 100 µM (inactive); in the assay on SW-620, > 100 µM (inactive); with TK-10 it was > 100 µM (inactive); in the assay with UACC-257, 67.8 µM (inactive); in the assay on UO-31, > 100 µM (inactive).
Consider `CCn1c2ccccc2c2cc(/N=N\c3ccc(C#N)cc3)ccc21`, for which the GI50 in the assay on CAKI-1 was 20.4 µM (inactive); with CCRF-CEM, > 100 µM (inactive); in the assay on DU-145, 62.7 µM (inactive); in the assay on HOP-92, 25.3 µM (inactive); in the assay on HT-29, 26.5 µM (inactive); in the assay on Hs-578T, 42.1 µM (inactive). Moreover, the GI50 with IGROV-1 was 32.5 µM (inactive); in the assay on MDA-MB-435, > 100 µM (inactive); in the assay with MOLT-4 it was > 100 µM (inactive); with NCI-H226, 56.8 µM (inactive); in the assay on NCI-H460, 64.7 µM (inactive); with OVCAR-5, 31.6 µM (inactive). For the same molecule, the GI50 was > 100 µM (inactive) with SK-MEL-2; 30.4 µM (inactive) with SNB-75; > 100 µM (inactive) in the assay on SW-620; 32.1 µM (inactive) in the assay with TK-10; 58.9 µM (inactive) in the assay with UACC-257; 75.7 µM (inactive) in the assay with UO-31.
As for `O=c1[nH]c2nc(S)nc(S)c2[nH]1`, the GI50 in the assay on CAKI-1, in the assay with HOP-92, in the assay on HT-29, in the assay with Hs-578T, in the assay on IGROV-1 and in the assay with MDA-MB-435 was > 100 µM (inactive) in each case. The GI50 in the assay with MOLT-4, in the assay with NCI-H226, in the assay on NCI-H460, in the assay with NCI/ADR-RES, in the assay on OVCAR-5 and in the assay with RXF 393 was > 100 µM (inactive) throughout. The GI50 with SK-MEL-2, with SW-620, with TK-10, with UACC-257 and in the assay on UO-31 was > 100 µM (inactive) in each case.
On to `O=C1CCC2(c3ccc(Cl)cc3)Nc3ncncc3N12` (stereo unspecified), for which the GI50 in the assay on CCRF-CEM, in the assay with DU-145, in the assay with HOP-92, in the assay on HT-29, with Hs-578T and in the assay on IGROV-1 was > 10 µM (inactive) each time. Also, the GI50 in the assay with MDA-MB-435, with MOLT-4, with NCI-H226, with NCI-H460, with NCI/ADR-RES and in the assay on OVCAR-5 was > 10 µM (inactive) in each case. For the same molecule, the GI50 in the assay with SK-MEL-2, with SNB-75, in the assay on SW-620, in the assay with TK-10, in the assay with UACC-257 and with UO-31 was > 10 µM (inactive) each time.
As to `CCC(C)C(NC(=O)C1CCCN1C(=O)C(CC(C)C)NC(=O)C(CC(C)C)NC(=O)C(N)CC(C)C)C(=O)NC(C(=O)NCC(=O)NC(CC(N)=O)C(=O)NC(CC(C)C)C(=O)NC(CC(C)C)C(=O)NC(CC(C)C)C(N)=O)C(C)C` (stereo unspecified) (H-LLLPIVGNLLL-NH2; configuration not given here), the GI50 with CAKI-1, in the assay on CCRF-CEM, in the assay on DU-145, in the assay on HOP-92, with HT-29 and in the assay on Hs-578T was > 50 µM (inactive) throughout. Moreover, the GI50 with IGROV-1, with MDA-MB-435, in the assay on MOLT-4, in the assay with NCI-H226, with NCI/ADR-RES and with OVCAR-5 was > 50 µM (inactive) each time. In addition, the GI50 in the assay with SK-MEL-2, in the assay on SW-620, in the assay with TK-10, in the assay on UACC-257 and with UO-31 was > 50 µM (inactive) each time.
`Nc1ccn(C2CC3OCC3O2)c(=O)n1` (stereo unspecified): the GI50 in the assay on CAKI-1, in the assay on CCRF-CEM, in the assay with DU-145, in the assay on HT-29, in the assay with Hs-578T and in the assay with IGROV-1 was > 100 µM (inactive) throughout. Also, the GI50 in the assay with MDA-MB-435, with MOLT-4, in the assay on NCI-H226, with NCI-H460, in the assay on NCI/ADR-RES and in the assay with OVCAR-5 was > 100 µM (inactive) in each case. Besides, the GI50 in the assay with SK-MEL-2, with SNB-75, with SW-620, in the assay on TK-10, with UACC-257 and with UO-31 was > 100 µM (inactive) throughout.
